Earlier results, collected in patent publication US20110136913A1, “ASSESSING AND TREATING BREAST CANCER PATIENTS” (priority 2008, published 2011).

System: MCF-7 cell lines that stably over express exogenous HER-2
Settings: MCF-7 cells over expressing HER-2, mouse model

## CC/C(=C(\c1ccccc1)c1ccc(OCCN(C)C)cc1)c1ccccc1 [tamoxifen]
  Effect on tumor growth: potent agonist on tumor growth
